Source: ChEMBL document CHEMBL1150571, “Hipposulfates A and B, new sesterterpene sulfates from an Okinawan sponge, Hippospongia cf. metachromia” (J Nat Prod, 2001)

Legend:
Format in all cases: functional, cell-based
A549 = test: Cytotoxicity against human A549 cells
SK-MEL-28 = test: Cytotoxicity against human SK-MEL-28 cells
P388 = test: Cytotoxicity against mouse P388 cells
HT-29 = test: Cytotoxicity against human HT-29 cells

Measured: IC50

CC1=CC[C@H]2C(C)(C)CCC[C@]2(C)[C@H]1CC/C(=C\OS(=O)(=O)[O-])CCC/C(C)=C/Cc1cc(O)ccc1O.[Na+] [HIPPOSULFATE A]
2 µg/mL: all assays above
